The values below come from ChEMBL document CHEMBL1201862, “PubChem BioAssay data set” (2004).

Holding throughout (test): NCI anticancer screen, dose series, 48 h
Test [1] concerns MCF7.
In test [2] the test system is CCRF-CEM.
Test [3] relates to SNB-19.
Test [4] relates to IGROV-1.
Test [5] concerns CAKI-1.
Test [6] concerns LOX IMVI.
Test [7] deals with OVCAR-4.
Test [8] deals with MDA-MB-435.
In test [9] the test system is HT-29.
The test system of test [10] is PC-3.
In test [11] the test system is Malme-3M.
Test [12] deals with HOP-62.
The subject of test [13] is COLO 205.
The subject of test [14] is 786-0.
In test [15] the test system is Hs-578T.
The subject of test [16] is SF-268.
In test [17] the test system is UACC-62.
Test [18] has as its system T47D.
The test system of test [19] is HCC 2998.

SMILES strings stand for the structures. Several values for one entry are separate records, joined by “and”; a condition that tells them apart may be missing. Equal entries are not always repeated.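 Each compound was tested at five concentrations against cells in 96-well plates for 48 hours. GI50: concentration for 50% inhibition of growth.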 Activity calls are given as the source filed them. Rule as the data show it: active = GI50 up to about 1.1 µM and inactive = higher. Some results are limits rather than exact numbers.

Consider `O=C(NNC(=O)c1ccccc1O)c1ccco1`, for which the GI50 in [1] was > 100 µM (inactive); in test [2], 31.3 µM (inactive); in test [3], > 100 µM (inactive); in [4], 64.9 µM (inactive); in test [5] it was > 100 µM (inactive); in [6] it was > 100 µM (inactive). Also, the GI50 in [7] was > 100 µM (inactive); in test [8], > 100 µM (inactive); in test [9], 51.5 µM (inactive); in [10], > 100 µM (inactive); in test [11] it was > 100 µM (inactive); in test [12], > 100 µM (inactive). The GI50 in test [13] is 83 µM (inactive); in [14] it was > 100 µM (inactive); in test [15], > 100 µM (inactive); in test [16] it was > 100 µM (inactive); in [17] it was > 100 µM (inactive); in [18] it was > 100 µM (inactive).

Turning to `CCNC(=O)CCC(C)[C@H]1CCC2C3C(C[C@H](OC(C)=O)[C@@]21C)[C@@]1(C)CCC2(C[C@H]1C[C@H]3OC(C)=O)OOC1(CCC(C)CC1)OO2` (some centres not stated), the GI50 in test [1] was 2.56 µM (inactive) and 2.7 µM (inactive); in [2], 710 nM (active) and 1.24 µM (inactive); in test [3], 6.38 µM (inactive) and 4.21 µM (inactive); in test [4] it was 1.35 µM (inactive) and 1.41 µM (inactive); in test [5], 1.5 µM (inactive) and 820 nM (active); in [6] it was 1.83 µM (inactive) and 2.05 µM (inactive). Further, the GI50 in [7] is 1.24 µM (inactive) and 1.58 µM (inactive); in test [8], 1.79 µM (inactive) and 1.72 µM (inactive); in test [11], 2.23 µM (inactive) and 1.6 µM (inactive); in test [12], 689 nM (active) and 1.31 µM (inactive); in test [13], 1.53 µM (inactive) and 1.65 µM (inactive); in [14], 2.38 µM (inactive) and 1.58 µM (inactive). Also, the GI50 in test [19] was 1.75 µM (inactive) and 3.1 µM (inactive); in test [15] it was 2.62 µM (inactive) and 2.68 µM (inactive); in test [17], 1.69 µM (inactive) and 2.26 µM (inactive); in test [18] it was 1.43 µM (inactive) and 1.68 µM (inactive).

As to `Cn1c2ccccc2c2c(=O)[nH]c(=O)[nH]c21`, the GI50 in test [1], in test [2], in test [3], in [4], in test [5] and in test [6] was > 100 µM (inactive) in each case. Moreover, the GI50 in [8], in test [9], in test [11], in [12], in test [13] and in [14] was > 100 µM (inactive) each time. For the same compound, the GI50 in [19], in test [15], in test [16], in test [17] and in [18] was > 100 µM (inactive) each time.

Turning to `COC(CNC(=O)C(C)NC(=O)CCc1ccccc1)OC` (configuration not stated), the GI50 in test [1], in test [2], in test [3], in test [4], in [5] and in test [7] was > 100 µM (inactive) in each case. The GI50 in test [8], in test [9], in [10], in test [11], in test [13] and in test [14] was > 100 µM (inactive) throughout. Besides, the GI50 in test [15], in test [16], in test [17] and in [18] was > 100 µM (inactive) each time.

As to `COCN1C(=O)[C@@H]2CCCN2C(=O)c2cc(N)ccc21`, the GI50 in test [1], in test [3], in test [4], in [5], in test [6] and in test [7] was > 100 µM (inactive) in each case. For the same compound, the GI50 in test [8] is > 100 µM (inactive); in test [9], > 100 µM (inactive); in test [10] it was > 100 µM (inactive); in [11], > 100 µM (inactive); in test [12], > 100 µM (inactive); in test [13], < 0.01 µM (active). For the same compound, the GI50 in test [14], in test [15], in test [16], in test [17] and in [18] was > 100 µM (inactive) throughout.

As to `CCOC(=O)C(NC(=O)c1cccc(Cl)c1)(N1CCN(c2cc3c(cc2F)c(=O)c(C(=O)O)cn3C2CC2)CC1)C(F)(F)F` (configuration not stated), the GI50 was 2.67 µM (inactive) in test [2]; 22.2 µM (inactive) in [3]; 16.1 µM (inactive) in [4]; 17.3 µM (inactive) in test [5]; 15.7 µM (inactive) in test [7]; 14.2 µM (inactive) in [8]. Moreover, the GI50 in test [10] was 13.7 µM (inactive); in test [11] it was 18 µM (inactive); in [12], 22.2 µM (inactive); in [13], 16.6 µM (inactive); in test [14], 14.6 µM (inactive); in [19], 19.4 µM (inactive). The GI50 is 20.7 µM (inactive) in test [15], 12.5 µM (inactive) in test [16], 15.3 µM (inactive) in test [17] and 19.1 µM (inactive) in [18].

Regarding `CCOC(=O)c1cnc2[nH]ccn2c1=O`, the GI50 in [1], in [2], in test [3], in test [4], in [5] and in [6] was > 10 µM (inactive) in each case. The GI50 in [7], in test [8], in test [9], in [10], in test [11] and in [12] was > 10 µM (inactive) in each case. The GI50 in [13], in test [14], in [15], in [16], in [17] and in test [18] was > 10 µM (inactive) in each case.

For `C=C1C(=O)CC2C(=O)C(C)(O)CC/C=C(\C)C(=O)CC12` (configuration not stated), the GI50 was 11.2 µM (inactive) in [1]; 4.23 µM (inactive) in test [2]; > 91.4 µM (inactive) in [3]; 15.3 µM (inactive) in [4]; 3.17 µM (inactive) in test [5]; 16.3 µM (inactive) in test [6]. Further, the GI50 was 37.6 µM (inactive) in [7]; 24.6 µM (inactive) in test [8]; 17 µM (inactive) in test [9]; 24.7 µM (inactive) in test [10]; 11.7 µM (inactive) in [11]; > 78.9 µM (inactive) in test [12]. Also, the GI50 in [13] is 9.84 µM (inactive); in test [14], 16.1 µM (inactive); in test [19], > 100 µM (inactive); in test [15] it was 2.96 µM (inactive); in test [16] it was 19.5 µM (inactive); in test [17], 30.3 µM (inactive).

On to `NCCCC[C@H](N)C(=O)Nc1ccc(-c2nc3ccccc3s2)cc1`, for which the GI50 is 9.89 µM (inactive) in [2]; 16.7 µM (inactive) in test [3]; 16.7 µM (inactive) in [4]; 37.9 µM (inactive) in [5]; 24.8 µM (inactive) in test [6]; 36.2 µM (inactive) in test [7]. For the same compound, the GI50 was 18.7 µM (inactive) in test [8]; 16.5 µM (inactive) in test [9]; 25.6 µM (inactive) in [10]; 19.4 µM (inactive) in test [11]; 25.1 µM (inactive) in test [12]; 18.7 µM (inactive) in [13]. In addition, the GI50 in test [14] is 18.1 µM (inactive); in [19] it was 26.7 µM (inactive); in [15] it was 23.1 µM (inactive); in test [16] it was 23.2 µM (inactive); in [17], 21.7 µM (inactive); in [18], 33.7 µM (inactive).

Consider `COc1nc(N)nc2c1n(C)c[n+]2C`, for which the GI50 in test [2], in test [3], in [4], in test [5], in [6] and in test [8] was > 100 µM (inactive) throughout. Besides, the GI50 in test [9], in [10], in [11], in [12], in test [13] and in test [14] was > 100 µM (inactive) throughout. The GI50 in test [15], in [16], in test [17] and in [18] was > 100 µM (inactive) each time.

`O=S(=O)(/N=S(/Nc1ccccc1)C(Cl)Cl)c1ccccc1` (configuration not stated): the GI50 in [1], in test [2], in test [3], in test [4], in test [6] and in [7] was > 100 µM (inactive) in each case. Moreover, the GI50 in [8], in test [9], in test [10], in test [11], in test [12] and in test [13] was > 100 µM (inactive) in each case. In addition, the GI50 in test [14], in [15], in test [16], in test [17] and in [18] was > 100 µM (inactive) in each case.
